The term Kd denotes the equilibrium constant for the complex coming apart.

The source made the active and inactive calls.

In test [1] the target is T1, Exosome RNA helicase MTR4 (Homo sapiens, UniProt P42285).
T1 sequence (P42285 whole entry): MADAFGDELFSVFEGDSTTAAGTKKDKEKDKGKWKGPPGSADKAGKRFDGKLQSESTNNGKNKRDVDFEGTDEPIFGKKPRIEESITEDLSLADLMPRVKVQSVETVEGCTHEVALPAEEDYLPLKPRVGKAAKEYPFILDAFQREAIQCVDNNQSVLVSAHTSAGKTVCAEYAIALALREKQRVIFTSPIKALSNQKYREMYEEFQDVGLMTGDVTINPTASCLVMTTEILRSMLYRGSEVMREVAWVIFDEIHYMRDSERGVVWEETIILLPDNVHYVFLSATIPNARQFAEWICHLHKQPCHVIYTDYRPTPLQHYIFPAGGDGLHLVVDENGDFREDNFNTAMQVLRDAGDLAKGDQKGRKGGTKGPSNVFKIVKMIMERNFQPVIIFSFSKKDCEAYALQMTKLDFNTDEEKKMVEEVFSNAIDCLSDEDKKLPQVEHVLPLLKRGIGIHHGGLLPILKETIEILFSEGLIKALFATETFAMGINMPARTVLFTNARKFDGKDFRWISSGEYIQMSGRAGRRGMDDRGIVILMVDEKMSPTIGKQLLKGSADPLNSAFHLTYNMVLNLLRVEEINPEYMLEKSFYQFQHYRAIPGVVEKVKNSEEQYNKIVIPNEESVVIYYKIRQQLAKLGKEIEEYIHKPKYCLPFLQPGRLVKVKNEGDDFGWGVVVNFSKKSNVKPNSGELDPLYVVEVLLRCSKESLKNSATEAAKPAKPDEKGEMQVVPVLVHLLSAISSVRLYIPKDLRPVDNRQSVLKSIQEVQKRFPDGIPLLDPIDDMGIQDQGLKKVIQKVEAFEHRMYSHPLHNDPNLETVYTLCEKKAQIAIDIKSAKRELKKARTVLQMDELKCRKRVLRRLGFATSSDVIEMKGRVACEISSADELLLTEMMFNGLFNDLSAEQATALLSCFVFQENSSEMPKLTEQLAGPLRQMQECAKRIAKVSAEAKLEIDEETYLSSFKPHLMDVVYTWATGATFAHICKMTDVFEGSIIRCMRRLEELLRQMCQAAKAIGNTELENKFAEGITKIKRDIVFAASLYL

The target in test [2] is Tyrosine-protein kinase ABL2 (Homo sapiens, UniProt P42684).
Sequence of Tyrosine-protein kinase ABL2 (P42684 whole entry): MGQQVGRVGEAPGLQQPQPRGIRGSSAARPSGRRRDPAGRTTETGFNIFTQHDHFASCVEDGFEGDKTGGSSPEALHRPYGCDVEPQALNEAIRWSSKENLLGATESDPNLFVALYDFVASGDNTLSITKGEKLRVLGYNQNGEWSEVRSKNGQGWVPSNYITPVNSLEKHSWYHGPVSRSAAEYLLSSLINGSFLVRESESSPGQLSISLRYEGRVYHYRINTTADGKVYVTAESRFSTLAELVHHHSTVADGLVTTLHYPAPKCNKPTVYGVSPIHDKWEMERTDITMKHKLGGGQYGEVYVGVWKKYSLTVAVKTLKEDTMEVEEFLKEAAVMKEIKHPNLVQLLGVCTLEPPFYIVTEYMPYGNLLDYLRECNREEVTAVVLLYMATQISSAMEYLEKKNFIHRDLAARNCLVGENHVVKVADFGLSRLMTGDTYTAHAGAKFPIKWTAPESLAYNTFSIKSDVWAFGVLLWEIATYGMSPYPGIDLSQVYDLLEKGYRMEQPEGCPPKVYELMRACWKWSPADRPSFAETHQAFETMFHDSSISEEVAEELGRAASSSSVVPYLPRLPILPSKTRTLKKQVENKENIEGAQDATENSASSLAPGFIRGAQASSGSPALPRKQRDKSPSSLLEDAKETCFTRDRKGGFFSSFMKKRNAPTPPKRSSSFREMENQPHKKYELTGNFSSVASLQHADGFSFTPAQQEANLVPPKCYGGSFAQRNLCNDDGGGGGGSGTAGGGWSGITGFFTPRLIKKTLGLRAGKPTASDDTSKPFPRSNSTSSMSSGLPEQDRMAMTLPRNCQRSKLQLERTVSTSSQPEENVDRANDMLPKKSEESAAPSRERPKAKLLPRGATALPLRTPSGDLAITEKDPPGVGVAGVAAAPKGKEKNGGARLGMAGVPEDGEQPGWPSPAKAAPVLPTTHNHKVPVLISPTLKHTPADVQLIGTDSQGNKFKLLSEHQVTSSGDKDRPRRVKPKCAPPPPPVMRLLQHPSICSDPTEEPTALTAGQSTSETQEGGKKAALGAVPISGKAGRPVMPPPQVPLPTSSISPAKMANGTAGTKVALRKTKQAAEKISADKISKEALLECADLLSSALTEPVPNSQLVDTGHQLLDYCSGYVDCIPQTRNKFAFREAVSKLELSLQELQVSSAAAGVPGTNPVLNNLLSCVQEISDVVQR
The next test addresses T2, Ephrin type-B receptor 6 (Homo sapiens, UniProt O15197).
T2 sequence (O15197 whole entry): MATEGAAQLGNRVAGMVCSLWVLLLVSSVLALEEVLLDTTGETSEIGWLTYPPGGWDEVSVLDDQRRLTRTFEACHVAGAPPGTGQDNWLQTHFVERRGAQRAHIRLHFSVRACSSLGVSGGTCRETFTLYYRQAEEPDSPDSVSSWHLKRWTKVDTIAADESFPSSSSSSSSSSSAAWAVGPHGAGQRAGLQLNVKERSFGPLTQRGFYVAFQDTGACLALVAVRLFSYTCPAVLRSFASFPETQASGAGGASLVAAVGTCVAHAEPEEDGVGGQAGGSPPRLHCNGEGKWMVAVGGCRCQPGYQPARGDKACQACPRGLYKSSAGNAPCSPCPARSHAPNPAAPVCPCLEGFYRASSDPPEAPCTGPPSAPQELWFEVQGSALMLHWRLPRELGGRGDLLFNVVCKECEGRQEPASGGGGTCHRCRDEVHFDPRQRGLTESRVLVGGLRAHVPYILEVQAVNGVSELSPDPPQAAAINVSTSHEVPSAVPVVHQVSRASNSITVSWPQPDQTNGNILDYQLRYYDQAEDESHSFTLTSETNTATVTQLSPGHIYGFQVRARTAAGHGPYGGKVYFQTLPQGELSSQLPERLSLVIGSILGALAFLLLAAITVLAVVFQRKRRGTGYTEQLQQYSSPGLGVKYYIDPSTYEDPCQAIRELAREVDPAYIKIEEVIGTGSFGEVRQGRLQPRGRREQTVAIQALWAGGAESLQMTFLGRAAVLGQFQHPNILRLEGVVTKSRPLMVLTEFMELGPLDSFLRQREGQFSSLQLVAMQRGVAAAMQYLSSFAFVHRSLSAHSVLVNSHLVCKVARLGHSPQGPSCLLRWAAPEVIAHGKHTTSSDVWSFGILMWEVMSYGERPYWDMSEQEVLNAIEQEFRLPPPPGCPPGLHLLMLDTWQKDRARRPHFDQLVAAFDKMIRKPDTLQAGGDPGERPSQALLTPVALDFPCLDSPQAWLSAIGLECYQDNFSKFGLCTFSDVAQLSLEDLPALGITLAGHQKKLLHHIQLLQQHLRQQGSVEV

The target of test [3] is T3, Dual specificity mitogen-activated protein kinase kinase 5 (Homo sapiens, UniProt Q13163).
T3 sequence (Q13163 whole entry): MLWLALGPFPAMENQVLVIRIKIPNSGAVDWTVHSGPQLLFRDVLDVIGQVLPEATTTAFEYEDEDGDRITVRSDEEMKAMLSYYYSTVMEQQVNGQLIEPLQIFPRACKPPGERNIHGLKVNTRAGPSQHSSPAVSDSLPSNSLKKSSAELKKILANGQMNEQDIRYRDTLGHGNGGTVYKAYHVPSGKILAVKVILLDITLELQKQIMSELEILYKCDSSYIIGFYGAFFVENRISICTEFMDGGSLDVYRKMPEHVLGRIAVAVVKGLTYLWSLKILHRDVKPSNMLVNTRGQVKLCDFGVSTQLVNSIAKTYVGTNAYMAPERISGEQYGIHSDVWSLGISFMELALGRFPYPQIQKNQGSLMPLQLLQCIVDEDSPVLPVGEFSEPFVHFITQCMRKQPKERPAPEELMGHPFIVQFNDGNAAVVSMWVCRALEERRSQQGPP

In test [4] the target is T4, Dual specificity mitogen-activated protein kinase kinase 3 (Homo sapiens, UniProt P46734).
T4 sequence (P46734 whole entry): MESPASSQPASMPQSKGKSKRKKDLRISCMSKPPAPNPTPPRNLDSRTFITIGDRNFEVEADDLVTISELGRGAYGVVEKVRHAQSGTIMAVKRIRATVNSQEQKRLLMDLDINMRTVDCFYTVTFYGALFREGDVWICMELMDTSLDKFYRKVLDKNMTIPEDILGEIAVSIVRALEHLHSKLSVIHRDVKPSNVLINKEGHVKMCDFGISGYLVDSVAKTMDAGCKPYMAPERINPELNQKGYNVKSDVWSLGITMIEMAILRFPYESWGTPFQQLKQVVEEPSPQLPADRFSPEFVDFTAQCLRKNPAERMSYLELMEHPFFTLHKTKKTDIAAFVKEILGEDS

A further test concerns the target LIM domain kinase 2 (Homo sapiens, UniProt P53671).
The next test has as its target Actin-related protein 2 (Homo sapiens, UniProt P61160).
Further: in the data inactive means no Kd found up to 30 µM.

Sequence of LIM domain kinase 2 (P53671 whole entry, the tested form may be a part): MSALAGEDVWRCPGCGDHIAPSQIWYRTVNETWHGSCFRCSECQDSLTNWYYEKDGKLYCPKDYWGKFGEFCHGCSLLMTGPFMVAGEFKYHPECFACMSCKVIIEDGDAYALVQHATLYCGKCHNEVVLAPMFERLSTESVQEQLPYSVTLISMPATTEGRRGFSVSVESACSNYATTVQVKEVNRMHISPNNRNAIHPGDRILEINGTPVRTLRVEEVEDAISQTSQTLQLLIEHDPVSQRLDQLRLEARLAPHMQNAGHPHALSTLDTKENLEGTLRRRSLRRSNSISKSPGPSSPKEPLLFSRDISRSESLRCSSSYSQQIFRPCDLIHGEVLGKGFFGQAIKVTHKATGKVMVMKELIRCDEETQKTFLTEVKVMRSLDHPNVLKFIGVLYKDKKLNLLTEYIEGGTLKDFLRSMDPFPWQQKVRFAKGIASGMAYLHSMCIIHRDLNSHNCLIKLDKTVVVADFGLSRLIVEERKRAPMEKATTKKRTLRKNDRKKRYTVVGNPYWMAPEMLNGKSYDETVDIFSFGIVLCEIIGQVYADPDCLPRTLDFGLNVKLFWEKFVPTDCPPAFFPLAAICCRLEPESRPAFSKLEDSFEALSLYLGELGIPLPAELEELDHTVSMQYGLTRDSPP

As for `COc1cc(F)c(F)c(Nc2ccc(I)cc2F)c1NS(=O)(=O)C1(C[C@H](O)CO)CC1` [REFAMETINIB], the Kd (in test [1]; in test [2]; at Ephrin type-B receptor 6; in test [3]; in test [4]; at LIM domain kinase 2) was > 30 µM (inactive) in each case.
`CCOc1ccn(-c2ccc(F)cc2)c(=O)c1C(=O)Nc1ccc(Oc2ccnc(N)c2Cl)c(F)c1` [BMS-777607]: the Kd in test [1] is > 30 µM (inactive); on Ephrin type-B receptor 6, > 30 µM (inactive); in test [3], 2.08 µM (active); at LIM domain kinase 2, > 30 µM (inactive).
`COc1cc2ncnc3c2cc1OCCCCCN(C)Cc1ccc(Br)cc1N3` [JNJ-26483327]: the Kd (in test [1]; in test [2]; on Ephrin type-B receptor 6; in test [3]; in test [4]; at LIM domain kinase 2) was > 30 µM (inactive) each time.
For the compound `CC1(C)CNc2cc(NC(=O)c3cccnc3NCc3ccncc3)ccc21` [MOTESANIB], the Kd (in test [1]; at Actin-related protein 2) was > 30 µM (inactive) in each case.
With `CC1(COc2ccc3c(c2)ncn3-c2ccc3cccc(N4CCC(N)CC4)c3n2)COC1` [CRENOLANIB], the Kd (in test [1]; in test [2]; at Ephrin type-B receptor 6; in test [4]; on LIM domain kinase 2; at Actin-related protein 2) was > 30 µM (inactive) each time.
`COc1cc2c(N3CCN(C(=O)Nc4ccc(OC(C)C)cc4)CC3)ncnc2cc1OCCCN1CCCCC1` [TANDUTINIB]: the Kd (in test [1]; on Actin-related protein 2) was > 30 µM (inactive) in each case.
As to `CNC(=O)c1ccc(Nc2ncc(C(F)(F)F)c(NCc3nccnc3N(C)S(C)(=O)=O)n2)cc1` [DEFACTINIB], the Kd (in test [1]; in test [2]; at Ephrin type-B receptor 6; in test [3]; in test [4]; at LIM domain kinase 2) was > 30 µM (inactive) in each case.
As to `CN(C)C/C=C/C(=O)Nc1cc2c(Nc3ccc(F)c(Cl)c3)ncnc2cc1O[C@H]1CCOC1` [AFATINIB], the Kd (in test [1]; at Actin-related protein 2) was > 30 µM (inactive) in each case.
On to `Cn1cnc2c(F)c(Nc3ccc(Br)cc3Cl)c(C(=O)NOCCO)cc21` [SELUMETINIB], for which the Kd (in test [1]; at Actin-related protein 2) was > 30 µM (inactive) throughout.
On to `Cn1c(=O)c(F)c(Nc2ccc(I)cc2F)c2c(=O)n(C[C@@H](O)CO)cnc21` [TAK-733], for which the Kd was > 30 µM (inactive) in test [1]; > 30 µM (inactive) in test [2]; 3.35 µM in test [3]; > 30 µM (inactive) in test [4]; > 30 µM (inactive) at LIM domain kinase 2; > 30 µM (inactive) on Actin-related protein 2.
Turning to `CC(C)(O)CC(=O)NCCn1ccc2ncnc(Nc3ccc(Oc4cccc(C(F)(F)F)c4)c(Cl)c3)c21` [TAK-285], the Kd in test [1] was > 30 µM (inactive); in test [2], > 30 µM (inactive); at Ephrin type-B receptor 6, 1.85 µM; in test [4], > 30 µM (inactive); at LIM domain kinase 2, > 30 µM (inactive); at Actin-related protein 2 it was > 30 µM (inactive).
In the case of `COc1cc2c(Oc3ccc4[nH]c(C)cc4c3F)ncnc2cc1OCCCN1CCCC1` [CEDIRANIB], the values for the Kd (in test [1]; at Actin-related protein 2) were 2.61 µM and > 30 µM (inactive), respectively.
As for `C[C@@]1(C(=O)Nc2ccc(F)nc2)CCCN1c1nc(Nc2cc(C3CC3)n[nH]2)c2cccn2n1` [BMS-754807], the Kd (in test [1]; at Actin-related protein 2) was > 30 µM (inactive) each time.
As for `CC[C@@](C)(Nc1ccnc(-c2c[nH]c3ncccc23)n1)C(=O)NCC(F)(F)F` [DECERNOTINIB], the Kd was > 30 µM (inactive) in test [1]; 7.07 µM (active) in test [2]; > 30 µM (inactive) on Ephrin type-B receptor 6; > 30 µM (inactive) in test [3]; > 30 µM (inactive) at LIM domain kinase 2.
